As usually defined, the IC50 is the concentration at which inhibition is half-maximal.

T1 sequence (O75762 whole entry): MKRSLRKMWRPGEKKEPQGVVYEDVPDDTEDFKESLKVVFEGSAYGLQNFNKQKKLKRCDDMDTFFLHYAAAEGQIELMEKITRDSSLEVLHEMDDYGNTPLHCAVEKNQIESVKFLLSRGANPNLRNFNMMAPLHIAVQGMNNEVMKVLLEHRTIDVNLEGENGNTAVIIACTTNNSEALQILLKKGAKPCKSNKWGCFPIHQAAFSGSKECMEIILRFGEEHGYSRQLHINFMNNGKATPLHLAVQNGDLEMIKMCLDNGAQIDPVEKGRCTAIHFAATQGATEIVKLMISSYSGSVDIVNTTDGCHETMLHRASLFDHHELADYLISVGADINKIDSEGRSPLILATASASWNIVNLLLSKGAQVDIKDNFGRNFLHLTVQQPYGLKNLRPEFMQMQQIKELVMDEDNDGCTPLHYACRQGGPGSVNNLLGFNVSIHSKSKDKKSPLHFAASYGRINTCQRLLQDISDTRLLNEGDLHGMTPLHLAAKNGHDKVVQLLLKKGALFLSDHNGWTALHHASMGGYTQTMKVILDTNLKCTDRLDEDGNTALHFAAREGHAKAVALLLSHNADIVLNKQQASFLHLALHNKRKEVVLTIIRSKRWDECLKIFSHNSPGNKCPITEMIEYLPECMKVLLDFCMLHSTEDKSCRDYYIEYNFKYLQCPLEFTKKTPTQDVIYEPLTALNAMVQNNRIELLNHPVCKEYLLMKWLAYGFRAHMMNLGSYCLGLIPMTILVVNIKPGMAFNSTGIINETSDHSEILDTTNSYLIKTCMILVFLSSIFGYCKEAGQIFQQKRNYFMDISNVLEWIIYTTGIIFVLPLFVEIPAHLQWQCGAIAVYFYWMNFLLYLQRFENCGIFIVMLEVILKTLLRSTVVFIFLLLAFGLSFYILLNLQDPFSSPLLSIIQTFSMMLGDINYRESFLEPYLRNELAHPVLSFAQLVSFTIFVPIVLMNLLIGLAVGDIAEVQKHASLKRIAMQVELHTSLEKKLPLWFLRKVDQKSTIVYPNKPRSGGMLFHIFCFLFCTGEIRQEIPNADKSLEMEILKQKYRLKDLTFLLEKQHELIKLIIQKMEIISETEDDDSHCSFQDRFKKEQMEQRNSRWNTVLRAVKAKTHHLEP

The assay has as its target T1, human TRPA1 (Homo sapiens, UniProt O75762).
T1 construct: expressed in transfected cells; host or cells: CHO cells
The assay can be described thus: TRPA1 FLIPR Tetra calcium influx assay in CHO cells (block of cinnamaldehyde-induced calcium influx). It is filed as cell-based. The conditions noted are these: Table 2; CHO cells expressing TRPA1; agonist cinnamaldehyde 75 uM; 20 min compound incubation; Hill coefficient fixed to 1.5; read-out: hTRPA1 CHO Ca2+ AUC EVO (IC50). Summed up: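 IC50s were derived from a Hill fit with n fixed at 1.5, using inhibition of FLIPR Tetra calcium signals in dye-loaded TRPA1-CHO cells. Cells sat with compound 20 min at room temperature in HBSS with 20 mM HEPES (pH 7.4) and 0.02% BSA, then were challenged with cinnamaldehyde near EC80: 75 µM human, 45 µM rat.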
Turning to `C[C@H]1[C@H](F)C[C@@H](C(=O)NCc2cc(-c3cnc(C(F)(F)F)cn3)ncn2)N1S(=O)(=O)c1ccc(F)cc1` [Example 87, (2S,4R,5S)-4-fluoro-1-(4-fluorophenyl)sulfonyl-5-methyl-N-[[6-[5-(trifluoromethyl)pyrazin-2-yl]pyrimidin-4-yl]methyl]pyrrolidine-2-carboxamide], the IC50 is 184 nM. Then `C[C@H]1[C@H](F)C[C@@H](C(=O)NCc2cc(C3CCN(CC(F)(F)F)CC3)ncc2F)N1S(=O)(=O)c1ccc(F)cc1` [Example 88, (2S,4R,5S)-4-fluoro-1-(4-fluorophenyl)sulfonyl-N-[[5-fluoro-2-[1-(2,2,2-trifluoroethyl)-4-piperidyl]-4-pyridyl]methyl]-5-methyl-pyrrolidine-2-carboxamide], with 42.3 nM; and `C[C@H]1[C@H](F)C[C@@H](C(=O)NCc2cc(-c3cnc(C(F)(F)F)nc3)ncc2F)N1S(=O)(=O)c1ccc(Br)cc1` [Example 89, (2S,4R,5S)-1-(4-bromophenyl)sulfonyl-4-fluoro-N-[[5-fluoro-2-[2-(trifluoromethyl)pyrimidin-5-yl]-4-pyridyl]methyl]-5-methyl-pyrrolidine-2-carboxamide], with 7.08 nM.

Take `C[C@H]1[C@H](F)C[C@@H](C(=O)NCc2cc(-c3cnc(C(F)(F)F)nc3)ncc2F)N1S(=O)(=O)c1ccc(Cl)cc1` [Example 90]: the IC50 is 2.5 nM. As to `C[C@H]1[C@H](F)C[C@@H](C(=O)NCc2cc(-c3cnc(C(F)(F)F)s3)ncc2F)N1S(=O)(=O)c1ccc(F)cc1` [Example 93, (2S,4R,5S)-4-fluoro-1-(4-fluorophenyl)sulfonyl-N-[[5-fluoro-2-[2-(trifluoromethyl)thiazol-5-yl]-4-pyridyl]methyl]-5-methyl-pyrrolidine-2-carboxamide], the IC50 is 5.38 nM.

Consider `C[C@H]1[C@H](F)C[C@@H](C(=O)NCc2cc(C3CCN(CC(F)(F)C(F)(F)F)CC3)ncc2F)N1S(=O)(=O)c1ccc(F)cc1` [Example 94, (2S,4R,5S)-4-fluoro-N-[[5-fluoro-2-[1-(2,2,3,3,3-pentafluoropropyl)-4-piperidyl]-4-pyridyl]methyl]-1-(4-fluorophenyl)sulfonyl-5-methyl-pyrrolidine-2-carboxamide], for which the IC50 is 5.52 nM. Next, `C[C@H]1[C@H](F)C[C@@H](C(=O)NCc2cc(-c3cnc(C(F)(F)F)nc3)ncc2F)N1S(=O)(=O)c1cc2ccccc2o1` [Example 95, (2S,4R,5S)-1-(benzofuran-2-ylsulfonyl)-4-fluoro-N-[[5-fluoro-2-[2-(trifluoromethyl)pyrimidin-5-yl]-4-pyridyl]methyl]-5-methyl-pyrrolidine-2-carboxamide]: 1.49 nM; `C[C@H]1[C@H](F)C[C@@H](C(=O)NCc2cc(-c3ncc(C(F)(F)F)s3)c(F)cn2)N1S(=O)(=O)c1ccc(F)cc1` [Example 96, (2S,4R,5S)-4-fluoro-1-(4-fluorophenyl)sulfonyl-N-[[5-fluoro-4-[5-(trifluoromethyl)thiazol-2-yl]-2-pyridyl]methyl]-5-methyl-pyrrolidine-2-carboxamide]: 22.5 nM. Next, `C[C@H]1[C@H](F)C[C@@H](C(=O)NCc2cc(-c3cnc(C(F)(F)F)nc3)cc(F)c2F)N1S(=O)(=O)c1ccc(F)cc1` [Example 97, (2S,4R,5S)-N-[[2-1,3-difluoro-5-[2-(trifluoromethyl)pyrimidin-5-yl]phenyl]methyl]-4-fluoro-1-(4-fluorophenyl)sulfonyl-5-methyl-pyrrolidine-2-carboxamide]: 6.06 nM; `C[C@H]1[C@H](F)C[C@@H](C(=O)NCc2cc(-c3cnc(C(F)(F)F)nc3)ncc2F)N1S(=O)(=O)c1cc2ccccc2s1` [Example 98, (2S,4R,5S)-1-(benzothiophen-2-ylsulfonyl)-4-fluoro-N-[[5-fluoro-2-[2-(trifluoromethyl)pyrimidin-5-yl]-4-pyridyl]methyl]-5-methyl-pyrrolidine-2-carboxamide]: 5.61 nM. As for `C[C@H]1[C@H](F)C[C@@H](C(=O)NCc2cc(-c3cnc(C(F)(F)F)nc3)ncc2F)N1S(=O)(=O)c1cc2cc(F)ccc2s1` [Example 99, (2S,4R,5S)-4-fluoro-1-(5-fluorobenzothiophen-2-yl)sulfonyl-N-[[5-fluoro-2-[2-(trifluoromethyl)pyrimidin-5-yl]-4-pyridyl]methyl]-5-methyl-pyrrolidine-2-carboxamide], the IC50 turned out to be 9.67 nM. Then `Cc1cnc(-c2cnc(C(F)(F)F)nc2)cc1CNC(=O)[C@@H]1C[C@@H](F)[C@H](C)N1S(=O)(=O)c1ccc(F)cc1` [Example 100, (2S,4R,5S)-4-fluoro-1-((4-fluorophenyl)sulfonyl)-5-methyl-N-((5-methyl-2-(2-(trifluoromethyl)pyrimidin-5-yl)pyridin-4-yl)methyl)pyrrolidine-2-carboxamide], with 12.7 nM. Consider `C[C@H]1[C@H](F)C[C@@H](C(=O)NCc2cc(-c3cnc(C(F)(F)F)nc3)ncc2F)N1S(=O)(=O)c1ccc(Cl)s1` [Example 101, (2S,4R,5S)-1-[(5-chloro-2-thienyl)sulfonyl]-4-fluoro-N-[[5-fluoro-2-[2-(trifluoromethyl)pyrimidin-5-yl]-4-pyridyl]methyl]-5-methyl-pyrrolidine-2-carboxamide], for which the IC50 stood at 0.545 nM. With `C[C@H]1[C@H](F)C[C@@H](C(=O)NCc2cc(-c3cnc(C(F)(F)F)nc3)ncc2C(F)F)N1S(=O)(=O)c1ccc(F)cc1` [Example 102, (2S,4R,5S)—N-((5-(difluoromethyl)-2-(2-(trifluoromethyl)pyrimidin-5-yl)pyridin-4-yl)methyl)-4-fluoro-1-(4-fluorophenylsulfonyl)-5-methylpyrrolidine-2-carboxamide], the IC50 was 4.07 nM. Then `C[C@H]1[C@H](F)C[C@@H](C(=O)NCc2cc(-c3cnc(C(F)(F)F)nc3)ncc2C(F)(F)F)N1S(=O)(=O)c1ccc(F)cc1` [Example 103, (2S,4R,5S)-4-fluoro-1-(4-fluorophenylsulfonyl)-5-methyl-N-((5-(trifluoromethyl)-2-(2-(trifluoromethyl)pyrimidin-5-yl)pyridin-4-yl)methyl)pyrrolidine-2-carboxamide], with 0.777 nM.

Turning to `C[C@H]1[C@H](F)C[C@@H](C(=O)NCc2cc(-c3cnc(C(F)(F)F)nc3)nc(C3CC3)c2C#N)N1S(=O)(=O)c1ccc(F)cc1` [Example 104, (2S,4R,5S)—N-((3-cyano-2-cyclopropyl-6-(2-(trifluoromethyl)pyrimidin-5-yl)pyridin-4-yl)methyl)-4-fluoro-1-(4-fluorophenylsulfonyl)-5-methylpyrrolidine-2-carboxamide], the IC50 is 0.682 nM.

Take `C[C@H]1[C@H](F)C[C@@H](C(=O)NCc2cc(-c3cnc(C(F)(F)F)nc3)ncc2OC(F)(F)F)N1S(=O)(=O)c1ccc(F)cc1` [Example 105, (2S,4R,5S)-4-fluoro-1-(4-fluorophenyl)sulfonyl-5-methyl-N-[[5-(trifluoromethoxy)-2-[2-(trifluoromethyl)pyrimidin-5-yl]-4-pyridyl]methyl]pyrrolidine-2-carboxamide]: the IC50 turned out to be 0.875 nM. Next, `C[C@H]1[C@H](F)C[C@@H](C(=O)NCc2cc(-c3cnc(C(F)(F)F)nc3)c(OC(F)(F)F)cn2)N1S(=O)(=O)c1ccc(F)cc1` [Example 106, (2S,4R,5S)-4-fluoro-1-(4-fluorophenyl)sulfonyl-5-methyl-N-[[5-(trifluoromethoxy)-4-[2-(trifluoromethyl)pyrimidin-5-yl]-2-pyridyl]methyl]pyrrolidine-2-carboxamide]: 2.2 nM; `C[C@H]1[C@H](F)C[C@@H](C(=O)NCc2cc(-c3cnc(C(F)(F)F)nc3)c(C(F)(F)F)cn2)N1S(=O)(=O)c1ccc(F)cc1` [Example 107, (2S,4R,5S)-4-fluoro-1-(4-fluorophenyl)sulfonyl-5-methyl-N-[[5-(trifluoromethyl)-4-[2-(trifluoromethyl)pyrimidin-5-yl]-2-pyridyl]methyl]pyrrolidine-2-carboxamide]: 9.74 nM. In the case of `C[C@H]1[C@H](F)C[C@@H](C(=O)NCc2cc(-c3cnc(C(F)(F)F)nc3)nc(C(F)(F)F)n2)N1S(=O)(=O)c1ccc(F)cc1` [Example 108, (2S,4R,5S)-4-fluoro-1-(4-fluorophenyl)sulfonyl-5-methyl-N-[[2-(trifluoromethyl)-6-[2-(trifluoromethyl)pyrimidin-5-yl]pyrimidin-4-yl]methyl]pyrrolidine-2-carboxamide], the IC50 is 2 nM.

Consider `C[C@H]1[C@H](F)C[C@@H](C(=O)NCc2cnc(C(F)(F)F)c(-c3cnc(C(F)(F)F)nc3)c2)N1S(=O)(=O)c1ccc(F)cc1` [Example 109, (2S,4R,5S)-4-fluoro-1-(4-fluorophenyl)sulfonyl-5-methyl-N-[[6-(trifluoromethyl)-5-[2-(trifluoromethyl)pyrimidin-5-yl]-3-pyridyl]methyl]pyrrolidine-2-carboxamide], for which the IC50 came out at 16.9 nM.

Consider `C[C@H]1[C@H](F)C[C@@H](C(=O)NCc2cc(-c3cnc(C(F)(F)F)nc3)cnc2C2CC2)N1S(=O)(=O)c1ccc(F)cc1` [Example 110, (2S,4R,5S)-N-[[2-cyclopropyl-5-[2-(trifluoromethyl)pyrimidin-5-yl]-3-pyridyl]methyl]-4-fluoro-1-(4-fluorophenyl)sulfonyl-5-methyl-pyrrolidine-2-carboxamide], for which the IC50 came to 10.6 nM. Then `C[C@H]1[C@H](F)C[C@@H](C(=O)NCc2cc(-c3cnc(C(F)(F)F)nc3)ccc2C(F)(F)F)N1S(=O)(=O)c1ccc(F)cc1` [Example 111, (2S,4R,5S)-4-fluoro-1-(4-fluorophenyl)sulfonyl-5-methyl-N-[[2-(trifluoromethyl)-5-[2-(trifluoromethyl)pyrimidin-5-yl]phenyl]methyl]pyrrolidine-2-carboxamide], with 1.75 nM.
